{
  "source": "patent US6482805B2",
  "about": "(Parker Hughes Institute, priority 1998, dated 2002)",
  "key": {"HIV-1 strain HTLVIIIB": {"tested_on": "HIV-1 strain HTLVIIIB", "test": "In vitro anti-HIV-1 activity, HTLVIIIB p24 assay in PBMC (Example 9)", "format": "cell-based", "conditions": "Human immunodeficiency virus 1; HIV-1 replication in PBMC, p24 antigen production", "protocol": "The HIV-1 strain, HTLVIIIB, which was propagated in CCRF-CEM cells, was used for in vitro assays of the anti-HIV-1 activity of selected novel WHI-07 analogues. Cell-free supernatants of HTLVIIIB-infected CCRF-CEM cells were harvested, dispensed into 1 ml aliquots, and frozen at −70° C. Titration of stock virus was performed by examining its cytopathic effects in MT-2 cells. [see, Uckun FM, et al., Antimicrob Agents Chemther 1998; 42:383-388]. Normal human peripheral blood mononuclear cells (PBMC) from HIV-negative donors were cultured for 72 h in RPMI 1640 supplemented with 20%(v/v) heat-inactivated fetal bovine serum (FBS), 3% interleukin-2, 2 mM L-glutamine, 25 mM HEPES, 2 g/L NaHCO3, 50 μg/ml gentamicin, and 4 μg/ml phytohemagglutinin prior to exposure to HIV-1 at a multiplicity of infection of 0.1 during a 1 h adsorption period at 37° C. in a humidified 5% CO2 atmosphere. […] Percent viral inhibition was calculated by comparing the p24 values from the drug-treated infected cells with p24 values from untreated infected cells (i.e., virus controls). […] A microculture tetrazolium assay, using 2,3-bis(2-methoxy-4-nitro-5-sulfophenyl)-5-[(phenylamino)-carbonyl]-2H-tetrazolium hydroxide, was performed to quantitate cellular proliferation."}, "female Swiss (CD-1) mice": {"tested_on": "female Swiss (CD-1) mice", "test": "Fertility of female mice after artificial insemination with intravaginal application (Example 7)", "format": "in vivo, mouse", "text": "Because fertilization in vivo is dependent on successful sperm transport through the female genital tract, we next determined whether exposure of sperm to the WHI-07 in vivo affected the subsequent fertility outcome. Hormonally primed adult female Swiss (CD-1) mice were artificially inseminated with motile epididymal sperm via the cervix with and without prior intravaginal application of WHI-07 in a cream base. Females were examined 8 days later for the presence or absence of embryos in uteri.\nMore particularly, adult (5-6 months old) female CD-1 mice were superovulated by an intraperitoneal injection (i. p.) of 5 IU of pregnant mare's serum gonadotropin followed by an i.p. injection of 5 IU of human chorionic gonadotropin 46-48 hours later. Mice were randomly assigned to one of the two treatment groups (27 or 24/group); vehicle controls [cream base (Taro Pharmaceuticals, Hawthorne, N.J.) with 1% DMSO], or test group (cream base with 1% WHI-07 in 1% DMSO) and given intravaginally (50 μl) prior to artificial insemination. Caudae epididymal sperm were obtained from proven breeder adult CD-1 male (5-6 months old) [B. Hogan, R. Beddington, F. Costantini, E. Lacy, Eds., Manipulating the Mouse Embryo (Cold Spring Harbor Laboratory Press, Plainview, N.Y., 1994] and suspended in a modified Krebs Ringer-bicarbonate medium (M2; Gibco-BRL) supplemented with pyruvate, lactate, and glucose. Sperm were capacitated in M2 medium-5% BSA for 1 hour prior to use. For each experiment cauda epididymal sperm pooled from 25 male mice and adjusted to 1-2×10^6 motile sperm/50 μl were used for insemination. A 50 μl volume/mouse was ejected through a 1 ml syringe with a blunted 18 gauge needle. Preparations were analyzed for sperm concentration, motility, and sperm motion parameters by CASA using software designed for oval sperm head morphology (Hamilton Thorne). On day 8, individual females representing the control and test group were killed and their uteri were examined for the presence or absence of embryos. A total of three independent fertility experiments were performed."}, "[1]": {"conditions": "experiment 1, 27 mice, 1% WHI-07 in cream base intravaginally, day 8"}, "[2]": {"conditions": "experiment 2, 27 mice, 1% WHI-07 in cream base intravaginally, day 8"}, "[3]": {"conditions": "experiment 3, 24 mice, 1% WHI-07 in cream base intravaginally, day 8"}, "[4]": {"conditions": "total of three experiments, 78 mice, p < 0.001 vs control"}},
  "data": [
    {"smiles": "COC(=O)C(C)NP(=O)(OCC1OC(N2C(=O)NC(=O)C(C)(Br)C2OC)CC1N=[N+]=[N-])Oc1ccc(Br)cc1", "note": "(stereo not drawn) [WHI-07, 5-Bromo-6-methoxy-5,6-dihydro-3′-azidothymidine-5′-(p-Bromophenyl Methoxyalaninyl Phosphate)]", "values": [
      {"measurement": "IC50", "setting": "HIV-1 strain HTLVIIIB", "result": 5, "unit": "nM"},
      {"measurement": "No. of WHI-07-treated mice fertile", "setting": "female Swiss (CD-1) mice; [1]", "result": 2},
      {"measurement": "WHI-07-treated mice fertile (%)", "setting": "female Swiss (CD-1) mice; [1]", "result": 7.4, "unit": "%"},
      {"measurement": "No. of WHI-07-treated mice fertile", "setting": "female Swiss (CD-1) mice; [2]", "result": 1},
      {"measurement": "WHI-07-treated mice fertile (%)", "setting": "female Swiss (CD-1) mice; [2]", "result": 3.7, "unit": "%"},
      {"measurement": "No. of WHI-07-treated mice fertile", "setting": "female Swiss (CD-1) mice; [3]", "result": 3},
      {"measurement": "WHI-07-treated mice fertile (%)", "setting": "female Swiss (CD-1) mice; [3]", "result": 12.5, "unit": "%"},
      {"measurement": "No. of WHI-07-treated mice fertile", "setting": "female Swiss (CD-1) mice; [4]", "result": 6},
      {"measurement": "WHI-07-treated mice fertile (%)", "setting": "female Swiss (CD-1) mice; [4]", "result": 7.6, "unit": "%"}
    ]}
  ]
}
